Experimental findings from ChEMBL document CHEMBL3774330, “Design, synthesis of phenstatin/isocombretastatin-oxindole conjugates as antimitotic agents” (Bioorg Med Chem, 2016) are described below.

The test system of test [1] is MCF7. Put plainly: cells. As to conditions: Homo sapiens, MCF7, 48 h.
Description: Cytotoxicity against human MCF7 cells after 48 hrs by MTT assay
A short description of test [2]: Cytotoxicity against human DU145 cells after 48 hrs by MTT assay. Type of test: functional, cell-based. As to conditions: DU-145, 48 h.
In test [3] the test system is A549. Put plainly: cells. As to conditions: Homo sapiens, A549, 48 h.
Description: Cytotoxicity against human A549 cells after 48 hrs by MTT assay
Test [4] concerns HepG2. The experiment in a line: cells. As to conditions: Homo sapiens, HepG2, 48 h.
Description: Cytotoxicity against human HepG2 cells after 48 hrs by MTT assay
Test [5] deals with HT-29. The experiment in a line: Cytotoxicity against human HT-29 cells after 48 hrs by MTT assay. The format is functional, cell-based. As to conditions: HT-29, 48 h. On the technique in general: Tetrazolium dyes change colour on reduction, which living cells bring about.
In test [6] the test system is HT-29. The experiment in a line: Cell cycle arrest in human HT-29 cells assessed as accumulation at G2/M phase at 50 nM after 48 hrs by propidium iodide staining based flow cytometry (reference value: 12.47%). Type of test: functional.
For test [7], the system named is HT-29. Put plainly: Induction of apoptosis in human HT-29 cells assessed as reduction in mitochondrial membrane potential at 50 nM after 48 hrs by JC-1 staining based flow cytometry (reference value: 94.3%). Type of test: functional. On the set-up: scale not given: the % may be the effect or the level left. In general terms: Flow cytometry measures light scatter and fluorescence of single cells or particles in a stream.

In test [8] the test system is HT-29. Put plainly: Induction of apoptosis in human HT-29 cells assessed as viable cells at 50 nM after 48 hrs by Annexin V-FITC/PI staining based flow cytometry (Rvb=93.82%). As to conditions: HT-29, 48 h, read-out: Activity. Type of test: functional.
The subject of test [9] is HT-29. The experiment in a line: Cell cycle arrest in human HT-29 cells assessed as accumulation at G2/M phase at 10 nM after 48 hrs by propidium iodide staining based flow cytometry (reference value: 12.47%). The format is functional.
Test [10] addresses Tubulin (Sus scrofa, UniProt P02554+P02550). Put plainly: Inhibition of porcine brain tubulin polymerization after 1 hr by fluorescence assay.
In test [11] the test system is HT-29. Put plainly: Cell cycle arrest in human HT-29 cells assessed as accumulation at G0/G1 phase at 10 nM after 48 hrs by propidium iodide staining based flow cytometry (reference value: 83.01%). Type of test: functional.
Test [12] concerns HT-29. The experiment in a line: Cell cycle arrest in human HT-29 cells assessed as accumulation at G0/G1 phase at 50 nM after 48 hrs by propidium iodide staining based flow cytometry (reference value: 83.01%). The format is functional.
For test [13], the system named is HT-29. The experiment in a line: Induction of apoptosis in human HT-29 cells assessed as reduction in mitochondrial membrane potential at 10 nM after 48 hrs by JC-1 staining based flow cytometry (reference value: 94.3%). Type of test: functional. On the set-up: scale not given: the % may be the effect or the level left.
The subject of test [14] is HT-29. The experiment in a line: Cell cycle arrest in human HT-29 cells assessed as accumulation at sub G1 phase at 10 nM after 48 hrs by propidium iodide staining based flow cytometry (reference value: 1.00%). The format is functional.
Test [15] relates to HT-29. Put plainly: Cell cycle arrest in human HT-29 cells assessed as accumulation at sub G1 phase at 50 nM after 48 hrs by propidium iodide staining based flow cytometry (reference value: 1.00%). The format is functional.
Test [16] relates to HT-29. The experiment in a line: Induction of apoptosis in human HT-29 cells assessed as necrotic cells at 10 nM after 48 hrs by Annexin V-FITC/PI staining based flow cytometry (Rvb=0.82%). Type of test: functional.
For test [17], the system named is HT-29. Put plainly: Cell cycle arrest in human HT-29 cells assessed as accumulation at S phase at 50 nM after 48 hrs by propidium iodide staining based flow cytometry (reference value: 3.02%). Type of test: functional.
Test [18] relates to HT-29. Put plainly: Induction of apoptosis in human HT-29 cells assessed as late apoptotic cells at 50 nM after 48 hrs by Annexin V-FITC/PI staining based flow cytometry (Rvb=4.06%). Type of test: functional.
The test system of test [19] is HT-29. The experiment in a line: Induction of apoptosis in human HT-29 cells assessed as late apoptotic cells at 10 nM after 48 hrs by Annexin V-FITC/PI staining based flow cytometry (Rvb=4.06%). Type of test: functional.
For test [20], the system named is HT-29. The experiment in a line: Cell cycle arrest in human HT-29 cells assessed as accumulation at S phase at 10 nM after 48 hrs by propidium iodide staining based flow cytometry (reference value: 3.02%). Type of test: functional.
The test system of test [21] is HT-29. The experiment in a line: Induction of apoptosis in human HT-29 cells assessed as early apoptotic cells at 50 nM after 48 hrs by Annexin V-FITC/PI staining based flow cytometry (Rvb=1.30%). The format is functional.
The test system of test [22] is HT-29. Put plainly: Induction of apoptosis in human HT-29 cells assessed as viable cells at 10 nM after 48 hrs by Annexin V-FITC/PI staining based flow cytometry (Rvb=93.82%). Type of test: functional. As to conditions: HT-29, 48 h, read-out: Activity.
The subject of test [23] is HT-29. Put plainly: Induction of apoptosis in human HT-29 cells assessed as necrotic cells at 50 nM after 48 hrs by Annexin V-FITC/PI staining based flow cytometry (Rvb=0.82%). The format is functional.
The test system of test [24] is HT-29. The experiment in a line: Induction of apoptosis in human HT-29 cells assessed as early apoptotic cells at 10 nM after 48 hrs by Annexin V-FITC/PI staining based flow cytometry (Rvb=1.30%). The format is functional.

The structures appear in SMILES notation.

As a reminder, the IC50 is the concentration that gives 50% inhibition. For `C=C(c1ccc(OC)c(/C=C2/C(=O)Nc3cc(Br)ccc32)c1)c1cc(OC)c(OC)c(OC)c1`, the IC50 in test [1] worked out at 21 µM; in [2] it was 20.7 µM; in test [3], 12.6 µM; in test [4], 10.5 µM; in test [5], 8.32 µM.

In the case of `COc1ccc(C(=O)c2cc(OC)c(OC)c(OC)c2)cc1/C=C1/C(=O)Nc2ccccc21`, the IC50 in [1] came to 10.7 µM; in [2], 26.8 µM; in [3], 6.7 µM; in [4] it was 3.8 µM; in [5], 2.73 µM.

Regarding `COc1ccc(C(=O)c2cc(OC)c(OC)c(OC)c2)cc1/C=C1/C(=O)Nc2ccc(Cl)cc21`, the IC50 in test [1] stood at 14.2 µM; in test [2] it was 29.2 µM; in test [3], 9.66 µM; in test [4], 2.51 µM; in test [5] it was 3.23 µM.

On to `C=C(c1ccc(OC)c(/C=C2/C(=O)Nc3ccc(Br)cc32)c1)c1cc(OC)c(OC)c(OC)c1`, for which the IC50 in [1] was found to be 18.2 µM; in test [2], 19.1 µM; in test [3], 7.43 µM; in test [4], 8.32 µM; in test [5], 5.62 µM.

Take `C=C(c1ccc(OC)c(/C=C2/C(=O)Nc3ccc(OC)cc32)c1)c1cc(OC)c(OC)c(OC)c1`: the IC50 in [1] was 3.16 µM; in test [2], 5.04 µM; in [3], 1.48 µM; in test [4], 0.897 µM; in test [5], 0.107 µM.

`C=C(c1ccc(OC)c(/C=C2/C(=O)Nc3ccc(F)cc32)c1)c1cc(OC)c(OC)c(OC)c1`: the concentration for half-maximal inhibition (IC50) turned out to be 3.98 µM in test [1]; 3.13 µM in [2]; 1.17 µM in test [3]; 0.084 µM in test [4]; 0.081 µM in test [5].

Regarding `COc1ccc(C(=O)c2cc(OC)c(OC)c(OC)c2)cc1/C=C1/C(=O)Nc2ccc(Br)cc21`, the IC50 amounted to 30.8 µM in test [1]; 19.1 µM in test [2]; 9.77 µM in test [3]; 8.13 µM in test [4]; 8.61 µM in test [5].

Take `COc1ccc2c(c1)/C(=C\c1cc(C(=O)c3cc(OC)c(OC)c(OC)c3)ccc1OC)C(=O)N2`: the half-inhibitory concentration (IC50) is 0.269 µM in test [1]; 1.23 µM in test [10]; 7.94 µM in [2]; 0.079 µM in test [3]; 0.095 µM in test [4]; 0.045 µM in test [5]. Besides, the Activity is on record as 49.8% in test [6]; 83.1% in [7]; 21.69% in test [9]; 73.61% in test [11]; 48.01% in test [12]; 87.7% in [13]. For the same molecule, the Activity is listed as 0.43% in [14]; 0.62% in test [15]; 0.83% in [16]; 0.91% in test [17]; 18.7% in test [18]; 8.34% in test [19]. Further, the Activity in [20] turned out to be 4.87%; in [21], 4.97%; in test [23], 3.52%; in test [24], 2.16%. Moreover, the viability at 0.05 µM in test [8] stood at 72.8%. For the same molecule, in test [22], the viability at 0.01 µM stood at 88.7%.

`COc1ccc(C(=O)c2cc(OC)c(OC)c(OC)c2)cc1/C=C1/C(=O)Nc2ccc(F)cc21`: the 50% inhibitory concentration (IC50) turned out to be 0.386 µM in test [1]; 1.01 µM in test [10]; 9.71 µM in test [2]; 0.093 µM in [3]; 0.186 µM in [4]; 0.049 µM in [5]. Moreover, the Activity in test [6] worked out at 56.82%; in test [7], 81%; in test [9], 47.12%; in [11], 50.06%; in [12] it was 41.27%; in test [13], 83.8%. In addition, the Activity is given as 0.35% in test [14]; 0.18% in test [15]; 0.98% in [16]; 1.36% in [17]; 24.46% in test [18]; 9.67% in test [19]. Also, the Activity in test [20] amounted to 2.47%; in [21], 5.42%; in test [23], 2.92%; in [24], 2.88%. In test [8], the viability at 0.05 µM is 67.2%. Further, in [22], the viability at 0.01 µM is 86.5%.

For the molecule `C=C(c1ccc(OC)c(/C=C2/C(=O)Nc3cc(Cl)ccc32)c1)c1cc(OC)c(OC)c(OC)c1`, the IC50 in test [1] worked out at 11.7 µM; in test [2] it was 11.4 µM; in [3], 7.41 µM; in test [4], 3.23 µM; in [5], 2.27 µM.

With `COc1ccc(C(=O)c2cc(OC)c(OC)c(OC)c2)cc1/C=C1/C(=O)Nc2cc(Br)ccc21`, the IC50 came out at 14.7 µM in [1]; 12 µM in [2]; 4.57 µM in test [3]; 4.02 µM in test [4]; 3.71 µM in [5].

On to `C=C(c1ccc(OC)c(/C=C2/C(=O)Nc3ccccc32)c1)c1cc(OC)c(OC)c(OC)c1`, for which the IC50 was found to be 20.3 µM in test [1]; 25.6 µM in test [2]; 11.4 µM in test [3]; 7.67 µM in [4]; 6.46 µM in test [5].

Turning to `C=C(c1ccc(OC)c(/C=C2/C(=O)Nc3ccc(Cl)cc32)c1)c1cc(OC)c(OC)c(OC)c1`, the IC50 turned out to be 15.2 µM in test [1]; 38.9 µM in test [2]; 10.9 µM in [3]; 5.62 µM in test [4]; 4.26 µM in test [5].

As for `COc1ccc(C(=O)c2cc(OC)c(OC)c(OC)c2)cc1/C=C1/C(=O)Nc2cc(Cl)ccc21`, the IC50 was 15.9 µM in [1]; 32.6 µM in test [2]; 11.9 µM in test [3]; 15.8 µM in test [4]; 13.4 µM in test [5].

With `COc1ccc(C(=O)c2cc(OC)c(OC)c(OC)c2)cc1/C=C1/C(=O)Nc2ccc([N+](=O)[O-])cc21`, the 50% inhibitory concentration (IC50) is 12.3 µM in [1]; 35.6 µM in [2]; 8.91 µM in [3]; 6.92 µM in test [4]; 5.13 µM in [5].

`C=C(c1ccc(OC)c(/C=C2/C(=O)Nc3ccc([N+](=O)[O-])cc32)c1)c1cc(OC)c(OC)c(OC)c1`: the IC50 in [1] was found to be 13.2 µM; in test [2] it was 19.5 µM; in test [3] it was 5.75 µM; in test [4] it was 3.71 µM; in test [5], 1.34 µM.

With `COc1ccc(/C=C\c2cc(OC)c(OC)c(OC)c2)cc1O` [COMBRETASTATIN A4], the IC50 in [1] came out at 0.046 µM; in [2], 0.007 µM; in test [3], 0.051 µM; in test [4], 0.023 µM; in [5], 0.049 µM. Also, the Activity in test [9] was found to be 45.76%; in test [11], 51.46%; in [13], 84.2%; in test [14], 0.16%; in [16] it was 2.93%; in test [19], 20.21%. The Activity stood at 2.62% in test [20] and 3.46% in test [24]. The viability at 0.01 µM in test [22] amounted to 73.4%.
